Measurements from patent US11667616B2, “Oral GSNOR inhibitor and pharmaceutical use thereof” (NANJING MEDICAL UNIVERSITY, priority 2020, dated 2023).

Key:
[1] = Pharmacokinetic study, plasma concentration by LC-MS/MS; format: in vivo, ICR mice; settings: ICR, mouse; for half-life: read-out: drug half-life period (converted)
Excerpt: Then, the plasma concentration was detected by LC-MS/MS at hour 0.083, 0.25, 0.5, 1, 2, 4, 8 and 24 respectively (FIG. 5).

[2] = test system: human aortic smooth muscle cells (HASMCs); experiment: Contractile/synthetic marker expression in angiotensin II-treated smooth muscle cells; format: cell-based; settings: angiotensin II 1 μM, 10 nM, 24 hours
Excerpt: Then, cellular RNA were extracted to detect contractile/synthetic markers of smooth muscle cells.

HUVECs [3] = experiment: Endothelial cell tube formation under high glucose; format: cell-based, Human; settings: high glucose 30 mM, 10 nM, 24 h
Excerpt: It is known that in the diabetic vascular complications, decreased angiogenesis and increased vascular endothelial permeability are among the risk factors causing local edema, ischemia followed by ulcer and amputation.
(§1) FIG. 3A, FIG. 3B and FIG. 3C show study of the in-vitro activity of the subject compound 1 against diabetic vascular complications.

GSNOR = target: T1, GSNOR (Homo sapiens, UniProt P11766); experiment: GSNOR activity in lysate of treated HUVECs (NADH consumption at 340 nm); format: cell-based; settings: for activities in in-vitro studies: relative to N6022
T1 construct: the cell lysate supernatants were treated with a substrate GSNO and a coenzyme NADH; endogenous in cells; host or cells: HUVEC (human umbilical vein endothelial cells)
T1 sequence (P11766 whole entry): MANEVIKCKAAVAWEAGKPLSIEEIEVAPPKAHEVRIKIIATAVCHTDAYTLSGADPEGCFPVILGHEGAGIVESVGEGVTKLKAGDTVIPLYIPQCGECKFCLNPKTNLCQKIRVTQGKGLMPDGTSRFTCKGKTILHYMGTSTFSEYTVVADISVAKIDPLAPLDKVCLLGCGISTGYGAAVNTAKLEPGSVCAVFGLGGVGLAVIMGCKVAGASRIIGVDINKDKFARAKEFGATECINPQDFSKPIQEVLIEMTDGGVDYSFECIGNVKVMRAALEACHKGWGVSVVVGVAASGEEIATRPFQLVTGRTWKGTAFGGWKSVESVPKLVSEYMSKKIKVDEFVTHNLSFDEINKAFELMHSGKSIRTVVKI
Excerpt: GSNOR plays a crucial regulatory role in asthma and cystic fibrosis.

HUVECs [4] = experiment: Endothelial cell sphere sprouting under high glucose; format: cell-based, Human; settings: high glucose 30 mM, 10 nM, 24 h
Excerpt: as §1

HUVECs [5] = experiment: Endothelial cell permeability under high glucose; format: cell-based, Human; settings: high glucose 30 mM, 10 nM, 24 h
Excerpt: as §1

[6] = test system: C57BL/6J mice with β-aminopropionitrile-induced aortic aneurysm/dissection; experiment: β-aminopropionitrile-induced aortic aneurysm/dissection model; format: in vivo
[7] = test system: diabetic C57BL/6J mice with lateral limb ischemia; experiment: Streptozotocin diabetes + lateral limb ischemia model; format: in vivo
Method: To generate diabetes model, mice at week 8 were intraperitoneally injected with streptozotocin (60 mg/kg/day) for consecutive 5 days, then the modeling was identified as a success if the blood glucose was measured to be greater than 16.6 mmol/L at week 10. […] The gastrocnemius muscles of the ischemic lateral limbs of the mice were isolated for frozen section, and immunofluorescence (platelet-endothelial cell adhesion molecule, CD31) was used to detect the angiogenesis (FIG. 6B); and the semimembranosus muscles were isolated for frozen section, and immunofluorescence (α-smooth muscle actin, α-SMA) was used to detect the arteriogenesis (FIG. 6B).

[8] = gavage 6 mg/kg/day vs N6022 iv 1 mg/kg/day, N6022-1 gavage 5.6 mg/kg/day, N6022-2 gavage 5.3 mg/kg/day
[9] = gavage 6 mg/kg/day, β-aminopropionitrile drinking water 28 days

| Structure (SMILES) | half-life [1] [h] | decrease in the expression of the contractile markers (actin α2, calmodulin 1, transgelin) due to angiotensin II [2] | increase in the expression of the synthetic markers (osteopontin, Kruppel-like factor 4, Kruppel-like factor 5) due to angiotensin II [2] | angiogenesis ability of endothelial cells (tube formation) (HUVECs [3]) | bioavailability ([1]; po) [%] | inhibitory effect on the GSNOR activity (GSNOR; 10 nM, 24 hours, HUVECs, lysate + GSNO + NADH) | activities in in-vitro studies (GSNOR) | sprouting ability of the endothelial cells (HUVECs [4]) | permeability of the endothelial cells (HUVECs [5]) | effect on aortic aneurysm/dissection compared with controls [6, 8] | expansion of the aortic diameter [6, 9] | mortality rate of the mice [6, 9] | angiogenesis of the ischemic lateral limbs of the diabetic mice (CD31, α-SMA) ([7]; gavage 6 mg/kg/day after operation) | effect on diabetic limb ischemia compared with controls [7, 8] | blood flow recovery of the lateral limbs (laser speckle imaging) ([7]; gavage 6 mg/kg/day, day 0, 7 and 14) |
| --- | --- | --- | --- | --- | --- | --- | --- | --- | --- | --- | --- | --- | --- | --- | --- |
| Cc1cc(C(N)=O)ccc1-n1c(CCC(=O)O)ccc1-c1ccc(-n2ccnc2)cc1 [N6022, 3-(5-(4-(1H-imidazol-1-yl)phenyl)-1-(4-carbamoyl-2-methylphenyl)-1H-pyrrol-2-yl) propanoic acid, reference compound] | 0.76 ± 0.15 | obviously inhibit | obviously inhibit | obviously improve |  |  |  |  |  |  |  |  |  |  |  |
| Cc1cc(C(N)=O)ccc1-n1c(CCC(=O)N2CCSC2=O)ccc1-c1ccc(-n2ccnc2)cc1 [subject compound 1, s4-(2-(4-(1H-imidazol-1-yl)phenyl)-5-(3-oxo-3-(2-oxothiazolidin-3-yl)propyl)-1H-pyrrol-1-yl)-3-methylbenzamide] | 1.62 ± 0.81 | obviously inhibit | obviously inhibit | obviously improve | 60.1 ± 7.91 | equivalent to N6022 | good activity in vitro | improve sprouting ability | modify the permeability | equivalent effect to the group intravenously injected with N6022 | inhibited | inhibited | obviously promote | equivalent effect to the group intravenously injected with N6022 | restore blood flow |
| CCOC(=O)CCc1ccc(-c2ccc(-n3ccnc3)cc2)n1-c1ccc(C(N)=O)cc1C [N6022-2] |  |  |  |  |  |  | significantly reduced |  |  |  |  |  |  |  |  |
| Cc1cc(C(N)=O)ccc1-n1c(CCC(N)=O)ccc1-c1ccc(-n2ccnc2)cc1 [N6022-1] |  |  |  |  |  |  | significantly reduced |  |  |  |  |  |  |  |  |
